Read-outs that look alike come from different tables or passages of the source. Square brackets hold non-standard residues; d marks the D form. Peptide text beside a SMILES is read from it. Abu = CC[C@H](N)C(=O)O
Key:
MDA-MB-231 xenograft = experiment: MDA-MB-231 orthotopic breast tumor xenograft; format: in vivo, SCID mice
Procedure: For primary tumor inhibition studies, 1−2×10^6 tumor cells were injected into 4-6 wk old female SCID mice. After the tumors reached a size of 100 mm^3 the animals were randomized into groups of 10 animals each. The animals were treated with vehicle, SP2012, SP2000, or SP2024. The peptides were administered subcutaneously daily. Dosing was continued for 3 or 4 weeks and tumor sizes were measured every 3 days using calipers. The tumor volume was estimated using the formula V=a^2b/2 where a and b are the smaller and larger diameters.
For the tumor xenograft assay, animals were housed and treated according to the approved animal protocol of the Institutional Care and Use Committee at Johns Hopkins Medical Institution (JHMI). Orthotopic breast tumors were initiated in SCID mice using MDA-MB-231 cells. 2×10^6 cells per 100 μL aliquot of single cell suspension were injected in the breast mannary fat pad. Tumors reached volumes of 75 mm^3 to 100 mm^3 in approximately 14-21 days. Mice were randomized and arranged in groups (8 mice per group) with similar tumor volumes (no statistical difference among averages) and treatment was commenced. Peptides were administered once per day intraperitoneally (i.p.) at doses of 10 mg/kg (subcutaneous delivery was also tested with certain peptides). Paclitaxel was administered at 5 mg/kg once a week, and to maintain the daily treatment regime PBS was administered on the non-treatment days. Tumors were measured every fourth day using calipers and the tumor volume was calculated using the formula V=ab^2/2, where a is the larger diameter and b is the smaller diameter.

HUVEC [1] = experiment: HUVEC migration assay (RT-CIM); format: cell-based, human
Method in brief: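 Real-time impedance (RT-CIM) transwell migration through fibronectin-coated (20 μg/mL) 8 μm membranes; 45,000 cells/well in serum-free medium ± peptides, fully supplemented EBM-2 as chemoattractant below. Cell index recorded over 20 h at 37 °C; ≥2 independent replicates, each in duplicate.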

[2] = test system: microvascular endothelial cells (MEC); experiment: MEC migration assay; format: cell-based
Procedure: (§1) The inhibitory potential of the peptides was measured using a real time migration assay system based on electrical impedance (RT-CIM, ACEA Biosciences, CA). CIM 16 well plates (Roche, 05665817001) are composed of a top and bottom chamber separated by a microporous (8 μm) polycarbonate membrane. The membrane was coated with fibronectin (20 μg/mL), and 45,000 cells/well in serum free media with or without peptides were added to the top compartment. Media with chemoattractant (i.e., fully supplemented EBM-2) was added to the bottom compartment of the chamber and the plate was incubated at 37° C. for 20 hours. The sensors integrated on the bottom side of the membrane monitor and continuously record changes in impedance as the cells move through the membrane. The RT-CIM technology allows for easy quantification of cell migration by monitoring the cell index derived from the measured impedances. Assays were performed in at least two independent replicates and each replicate was performed using two experimental duplicates.

[3] = test system: MDA-MB-231 breast cancer cells; experiment: MDA-MB-231 wound healing type migration assay (Oris Pro); format: cell-based
Procedure: Breast cancer cells MDA-MB-231 are not suitable for the RT-CIM type experiments due to their thin elongated phenotype, thus the inhibition of migration was investigated using a wound healing type assay. This assay was performed using the Oris Pro Migration assay (Platypus Technologies, CMA 1.101). Briefly, 20,000-25,000 cells/well in full media were added to the 96 well plate containing stoppers to block migration of cells to the center region of the wells. Cells were allowed to adhere for 4 hours, after which the stoppers were removed. Cells were washed one time with PBS and fully supplemented media, with or without compound, was added to the wells. […], cells were stained with calcein AM (0.5 μg/mL) (Invitrogen, CA) and the cells that migrated to the center of the well were quantified by fluorescence intensity measured using a Victor V plate reader (Perkin Elmer) and also imaged using a Leica or Nikon microscope.

[4] = test system: lymphatic endothelial cells (LEC); experiment: LEC migration assay; format: cell-based
Procedure: as §1

HUVEC [5] = experiment: HUVEC tube formation assay on Matrigel; format: cell-based, human
Method in brief: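 HUVEC (15,000/well) plated on polymerized Matrigel in complete media with or without peptide for 19 h at 37 °C. Tube networks imaged by microscopy, one random field per well, in triplicate wells across at least two independent experiments.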

[6] = test system: lymphatic endothelial cells (LEC); experiment: LEC adhesion assay; format: cell-based
Procedure: (§2) Similar to the migration assays, the inhibition activity of the peptide in cellular adhesion was assessed using the RT-CIM technology. In this case, 25,000 cells/well were plated in 16 wells E-plates (Roche, Basel Switzerland) in the presence or absence of the peptide. The adhesion was monitored over time (3 hours) by measuring changes in the electrical impedance, which is a direct measure of the cells adhering on the electrodes. […] Assays were performed in at least two independent replicates and each replicate was performed using two experimental duplicates.

HUVEC [7] = format: cell-based, human; conditions: HUVEC
Method in brief: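 Adhesion of 25,000 cells per well, with or without peptide, followed by real-time electrical impedance on electrode plates over 3 hours. At least two independent replicates, each run in duplicate.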

[8] = test system: MDA-MB-231 breast cancer cells; experiment: MDA-MB-231 adhesion assay; format: cell-based
Procedure: as §2

HUVEC [9] = format: cell-based, human
Method in brief: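 HUVEC plated at 2000 cells/well overnight, then exposed to peptides in fully supplemented medium for three days. WST-1 added in serum-free EBM-2 for four hours and absorbance read at 450 nm. Percent live cells taken relative to untreated cells in complete medium with 0.2% DMSO.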

[10] = test system: microvascular endothelial cells (MEC); experiment: MEC adhesion assay; format: cell-based
Procedure: as §2

[11] = Yes/No summary, active = inhibitory potential greater than 30%

SMILES: CC[C@H](NC(=O)[C@H](Cc1ccccc1)NC(=O)[C@H](CCSC)NC(=O)[C@H](Cc1ccccc1)NC(=O)[C@@H]1CCCN1C(=O)[C@H](CCSC)NC(=O)[C@@H](NC(=O)[C@H](CO)NC(=O)[C@H](Cc1ccccc1)NC(=O)[C@H](CCCNC(=N)N)NC(=O)[C@H](CCCNC(=N)N)NC(=O)[C@@H](N)CC(C)C)[C@@H](C)O)C(=O)N[C@@H](CC(N)=O)C(=O)N[C@H](C(=O)N[C@@H](CC(N)=O)C(=O)N[C@@H](CC(N)=O)C(=O)N[C@H](C(=O)N[C@@H](CC)C(=O)N[C@@H](CC(N)=O)C(=O)N[C@@H](Cc1ccccc1)C(N)=O)C(C)C)[C@@H](C)CC [SP2012, LRRFSTMPFMFAbuNINNVAbuNF] (H-LRRFSTMPFMF[Abu]NINNV[Abu]NF-NH2; N-terminus assumed)
- suppression of tumor growth (MDA-MB-231 xenograft; MDA-MB-231 xenograft in mice, 10 mg/kg daily): tumor growth was inhibited
- microvascular density (MDA-MB-231 xenograft; after completion of the treatment at 21 days): statistically different from one another
- MDA-MB-231 xenograft inhibition (MDA-MB-231 xenograft; mice): Active
- Migration Inhibition (5 uM) (HUVEC [1]; 5 uM peptide): 0% (5 uM)
- Migration Inhibition (50 uM) (HUVEC [1]; 50 uM peptide): 68%
- Activity in Migration (HUVEC [1]; [11]): Yes
- inhibition of migration of MEC [2]: quite active
- inhibition of migration of MDA-MB-231 cells [3]: strong
- Migration of MDA-MB-231 cells into the restricted area ([3]; 50 μM and 5 μM treatments, 17 hours of incubation): statistically significant versus the control
- inhibition of migration of LEC [4]: strong
- Tube formation Inhibition (HUVEC [5]; (l0 uM) printed in the cell): Complete
- Activity in Tube formation (HUVEC [5]; Yes/No summary): Yes
- inhibition of adhesion of LEC [6]: strong
- Adhesion Inhibition (100 uM) (HUVEC [7]; 100 uM peptide): 93.14%
- Activity in Adhesion (HUVEC [7]; [11]): Yes
- inhibition of adhesion of MDA-MB-231 cells [8]: strong
- IC50 (HUVEC [9]): 22 µM
- Activity in Proliferation (HUVEC [9]; HUVEC, Yes/No summary): Yes
- IC50 (HUVEC [9]; HUVEC, tables 5, 8-10 and text, read-out: IC50 ± 95% CI (μM), proliferation): 48.1 ± 23.1 µM
- inhibition of adhesion of MEC [10]: quite active

Source: US9056923B2, “Mimetic peptides derived from collagen type IV and their use for treating angiogenesis- and lymphagiogenesis-dependent diseases” (THE JOHNS HOPKINS UNIVERSITY, priority 2010, dated 2015)
